Source: ChEMBL document CHEMBL1833878, “Cyclodepsipeptides, sesquiterpenoids, and other cytotoxic metabolites from the filamentous fungus Trichothecium sp. (MSX 51320)” (J Nat Prod, 2011)
Converted amounts (≈) assume the structure as drawn. *1 amine or outer side, *2 acyl side, *3 side chain or, on linkers, in order; H or OH if unused. Where a SMILES comes first, the peptide text is derived from it. [ ]: non-standard residue; d: D form. X1 = CC(C)(O)[C@H](O[*:1])C(=O)[*:2]; dNMeF = CN[C@H](Cc1ccccc1)C(=O)O; Hica(2S) = CC(C)C[C@H](O)C(=O)O; NMeL = CN[C@@H](CC(C)C)C(=O)O; Hiv = CC(C)[C@H](O)C(=O)O; NMeA = CN[C@@H](C)C(=O)O

Assays:
[1] = tested on: Staphylococcus epidermidis; assay: Antibacterial activity against Staphylococcus epidermidis; format: functional
Enterococcus durans = assay: Antibacterial activity against Enterococcus durans; format: functional
MCF7 = assay: Cytotoxicity against human MCF7 cells; format: functional, cell-based
NCI-H460 = assay: Cytotoxicity against human NCI-H460 cells; format: functional, cell-based
SF-268 = assay: Cytotoxicity against human SF268 cells; format: functional, cell-based
[2] = Cytotoxicity against human HTB-177 cells; format: functional, cell-based
HT-29 = assay: Cytotoxicity against human HT-29 cells; format: functional, cell-based
[3] = Cytotoxicity against human HTB-38 cells; format: functional, cell-based
MDA-MB-435 = assay: Cytotoxicity against human MDA-MB-435 cells; format: functional, cell-based
[4] = Cytotoxicity against human HTB-129 cells; format: functional, cell-based

Question: What does the source list for `CC(C)C[C@@H]1OC(=O)[C@H](C)NC(=O)[C@H](C(C)(C)O)OC(=O)[C@H](C)N(C)C(=O)[C@@H](C)NC(=O)[C@@H](Cc2ccccc2)N(C)C1=O` [GUANGOMIDE A] (cyclo(A[Hica(2S)][dNMeF][dA][NMeA][X1]))?
Answer: MIC [1]: 100 µg/mL (≈ 162 µM); MIC (Enterococcus durans): 100 µg/mL (≈ 162 µM); EC50 (MCF7): 15 µM; EC50 (NCI-H460): 15 µM; EC50 (SF-268): 15 µM

Question: With `CC(C)C[C@@H]1NC(=O)[C@H](CC(C)C)N(C)C(=O)[C@H](Cc2ccccc2)NC(=O)[C@H](CC(C)C)OC(=O)[C@H](C(C)C)OC(=O)[C@H](CO)NC1=O` [TRICHODEPSIPEPTIDE] (cyclo(F[NMeL]LS[Hiv][Hica(2S)])) as the compound, how does the IC50 (MCF7) read?
Answer: Its IC50 is > 10 µM.

Question: What about the IC50 (NCI-H460) of the same compound?
Answer: The IC50 was > 10 µM.

Question: And the IC50 (SF-268)?
Answer: The IC50 was > 10 µM.

Question: And the IC50 [2]?
Answer: The IC50 was > 10 µM.

Question: What about the IC50 (HT-29) of the same compound?
Answer: Its IC50 is > 10 µM.

Question: What about the IC50 [3] of the same compound?
Answer: Its IC50 is > 10 µM.

Question: And the IC50 (MDA-MB-435)?
Answer: The IC50 was > 10 µM.

Question: What about the IC50 [4] of the same compound?
Answer: Its IC50 is > 10 µM.

Question: Which results are given for `CC(C)C[C@@H]1OC(=O)[C@H](C(C)C)OC(=O)[C@H](CO)NC(=O)[C@H](C(C)C)NC(=O)[C@H](CC(C)C)N(C)C(=O)[C@H](Cc2ccccc2)NC1=O` [TRICHODEPSIPEPTIDE B] (cyclo(F[NMeL]VS[Hiv][Hica(2S)]))?
Answer: IC50 (MCF7): > 10 µM; IC50 (NCI-H460): > 10 µM; IC50 (SF-268): > 10 µM; IC50 [2]: > 10 µM; IC50 (HT-29): > 10 µM; IC50 [3]: > 10 µM; IC50 (MDA-MB-435): > 10 µM; IC50 [4]: > 10 µM

Question: Which results are given for `C/C=C\C(=O)O[C@@H]1CC2O[C@@H]3C=C(C)[C@@H](O)C4OCC2(O)[C@@]1(C)[C@]43C` (some centres undefined)?
Answer: IC50 (MCF7): > 10 µM; IC50 (NCI-H460): > 10 µM; IC50 (SF-268): > 10 µM; IC50 [2]: > 10 µM

Question: Which IC50 (MCF7) does the source give for `COC(=O)[C@@H]1O[C@@H](O)C(=O)[C@]2(C(O)/C=C(C)/C=C/C=C(\C)CCC=C(C)C)O[C@H]12` (some centres undefined) [TRICHOTHOSPORON A] here?
Answer: Its IC50 is > 10 µM.

Question: What about the IC50 (NCI-H460) of the same compound?
Answer: The IC50 was > 10 µM.

Question: What about the IC50 (SF-268) of the same compound?
Answer: Its IC50 is > 10 µM.

Question: And the IC50 [2]?
Answer: Its IC50 is > 10 µM.
